US11779565B2, “Small organic molecules for use in the treatment of neuroinflammatory disorders” (THE MEDICAL RESEARCH, INFRASTRUCTURE AND HEALTH SERVICES …, priority 2017, dated 2023)

How the values were obtained:
ATDC5 cells = assay: Cell viability (CellTiter-Glo) in the ATDC5 HTS bioassay; format: cell-based; details: library screening
Procedure: Poly-L-lysine (Sigma-Aldrich) was added to 384-well plates and was removed after 30 min of incubation at RT. An assay medium containing DMEM/F12, 2% FBS, 100 units/ml penicillin, […] streptomycin (Biological industries) was added to each well. […] ATDC5 cells (Sigma-Aldrich) were harvested, re-suspended in assay medium and added to a final concentration of 2000 cells/well. Finally, heparin (Sigma-Aldrich) was added to a final concentration of 2 μg/ml. The cells were incubated for 48 hours at 37° C. with 5% CO2 in a humidified chamber in the presence or absence of potential small molecule inhibitors of BPM-2. After incubation, ALP levels and cell viability were determined using a completely automated protocol. Cells were washed with PBS, lysed using a lysis buffer containing 0.2% Triton X-100 in PBS supplemented with a protease inhibitor cocktail (Sigma-Aldrich) and incubated for 25 min at RT. ALP level was then determined by addition of CDP-Star® chemiluminescent substrate (Sigma-Aldrich) and measurement of luminescence after incubation for 25 min at RT in the dark. Cell viability was finally determined by addition of CellTiter-Glo® reagent (Biological Industries) and luminescence measurement after 10 min of incubation.
An ATDC5 cell based assay for assessing structure-function relationship of BMP-2 and BMP receptor IA was originally described in Keller et al (Nature Structural & Molecular Biology 2004 11, 481-488). In order to screen a large volume of potential therapeutic agents the ATDC5 cell based bioassay for detecting BMP inhibition was adapted for use in high throughput screening. The bioassay is based on the stimulation of alkaline phosphatase (ALP) production in mouse ATDC5 cells by administration of BMP-2 and heparin, and measurement of ALP levels in the presence of the potential inhibitors. The assay was characterized by the following features: • (a) optimal conditions for HTS automated instruments were found so as to obtain a satisfying gap (i.e. positive Z-prime, above 0.5) between ALP production in the presence of BMP-2, to ALP production in the absence of BMP-2 (no stimulation). • (b) a sensitive method was designed for ALP determination for HTS—namely, the use of CDP-Star® chemiluminescent substrate and luminescence measurement. • (c) both ALP production and cells' viability were measured simultaneously. This was achieved by using CellTiter-Glo® Luminescent Cell Viability Assay for assessing the cells' viability after the luminescent signal by CDP-Star® has faded. […]
A library of small molecules (SM) was screened using the High Throughput Screening bioassay described above. […] The ALP levels and cell viability are shown in FIG. 2 as a percentage of the ALP or viability luminescence levels in the presence of BMP-2 without the SM. […]

SMAD1/5/8 signaling = SMAD1/5/8 signaling by Western blot in P19 cells; format: cell-based, murine; details: 4 h
Procedure: P19 cells were seeded in 6-well-plates (3.5×10^5 cells/well). On the following day, the cells were either untreated or treated with 5×10^−7 M RA, 5 ng/ml BMP-2 or SMs for 4 h. Cells were washed with ice cold PBS, harvested and lysed with ice cold RIPA buffer (Sigma-Aldrich) supplemented with protease inhibitor cocktail and sodium orthovanadate (Na3VO4) as phosphatase inhibitor (Sigma-Aldrich). Protein concentrations were determined using a BCA protein assay kit (Pierce, Rockford, Ill.). Cell lysates (40-60 μg protein) were separated by 4-15% SDS-PAGE gel electrophoresis and then transferred to nitrocellulose membranes at 0.2 A for 2 h. The membranes were blocked at room temperature for 1 h in 5% (w/v) non-fat-dried milk and then incubated with anti-phospho-Smad1/5/9, anti-Smad1 (Cell signaling Technology, Beverly, Mass., USA) and anti-tubulin (Sigma-Aldrich) antibodies at room temperature for 2 h. The membranes were washed and incubated with alkaline phosphatase-conjugated secondary antibody (Jackson Laboratories Immune Research, PA, USA). Signal was detected using enhanced chemiluminescence kit (Clarity, Bio-Rad Laboratories, Richmond, Calif.) and digital images were captured by MicroChemi (DNR Bio-imaging Systems, Jerusalem, Israel). Protein levels were quantified using ImageJ software and normalized to {alpha}-tubulin.
The canonical BMP signal is known to be mediated via SMAD phosphorylation. BMPs transduce signals by binding to complexes of type I and II serine/threonine kinase receptors. Ligand binding induces phosphorylation of the receptors, which then activate canonical signaling via receptor Smads (R-Smads) 1, 5 and 8. R-Smads are phosphorylated by the activated type I receptor. They then complex with Smad4, triggering nuclear translocation. The effect of the SMs on the phosphorylation of the canonical SMAD1/5/8 signaling, induced in P19 cells in response to stimulation with BMP-2, was examined.

RR-EAE mice = assay: Demyelination in EAE: LFB-H&E staining of lumbar spinal cord; format: in vivo; details: day 48 post immunization (vehicle 28.3±1.8%)
Procedure: FIGS. 6A-6B—The effect of SM1, SM6, SM7 and SM9 on demyelination. FIG. 6A: Representative images of the lumbar spinal cord section, stained with LFB (anterio lateral funiculus), of mice treated with vehicle, SM1 10 mg/kg/day, SM1 20 mg/kg/day, SM7 10 mg/kg/day, SM9 10 mg/kg/day, SM9 20 mg/kg/day, SM6 10 mg/kg/day and SM6 20 mg/kg/day. FIG. 6B: Quantification of myelinated area. […] Quantification was performed using Image J software on 6 mice/group and 3 sections/mouse.
The direct effect of the SMs on the demyelination and remyelination processes was analyzed. Spinal cord was removed from 6 mice of each group and the lumbar segment of the spinal cord was sectioned (10 μm coronal paraffin section) and was processed for LFB-H&E (luxol fast blue with H&E) for myelin and infiltrates staining.

Compound	cytotoxicity in mouse ATDC5 cells (ATDC5 cells)	reduction in p-SMAD/tubulin compared to stimulation with BMP-2 alone (SMAD1/5/8 signaling; 2.5 μM) [%]	reduction in p-SMAD/tubulin compared to stimulation with BMP-2 alone (SMAD1/5/8 signaling; 5 μM) [%]	% myelinated area (LFB-stained area of total spinal cord section) (RR-EAE mice; 10 mg/kg) [%]	% myelinated area (LFB-stained area of total spinal cord section) (RR-EAE mice; 20 mg/kg) [%]
COC(=O)c1sccc1N/N=C(\C#N)S(=O)(=O)c1cccs1 [SM1, Methyl 3-[(2E)-2-[cyano(thiophen-2-ylsulfonyl)methylidene]hydrazinyl]thiophene-2-carboxylate]	without leading to cytotoxicity	24.2	19.9	–	–
O=C(Nc1cccc(C(F)(F)F)c1)c1ccc([N+](=O)[O-])o1 [SM6, N2-[3-(trifluoromethyl)phenyl)-5-nitro-2-furamide]	without leading to cytotoxicity	–	–	34.8±1.6	–
N#Cc1c(O)nsc1Nc1ccccc1C(F)(F)F [SM7, 3-hydroxy-5-[2-(trifluoromethyl)aniline]isothiazole-4-carbonitrile]	without leading to cytotoxicity	40.0	–	34.0±0.8	–
CS(=O)(=O)c1noc(-c2ccc(Cl)cc2)c1C#N [SM9, 5-(4-chlorophenyl)-3-methylsulfonyl-1,2-oxazole-4-carbonitrile]	without leading to cytotoxicity	42.7	–	–	34.6±1.6
